Results: patent publication US20250368595A1, “NOVEL MOLECULES” (XENIOPRO GmbH, priority 2018, published 2025)

Experiments:
MDA-MB-231 cells = assay: alamarBlue proliferation assay with MDA-MB-231 cells; format: cell-based, human; conditions: 20 μM, relative to DMSO basis level 1.0
Source text: The antiproliferative activities of compounds falling under formula (Ia), (Ib) and (Ic), respectively, were investigated on cells or cell lines originating from a disorder of the haematopoietic system, including the myeloid cell compartment and the lymphoid cell compartment (T-cells and B-cells), the neuroendocrine system, the cervix, the breast, the ovaries, the lung, the gastrointestinal tract, and the mucosal epithelium, as well as from the skin epithelium and from the muscle. […] The readout was taken with a multi-well plate-reader in the fluorescence mode with applying a filter for excitation at 560 nm (band width 10 nm) and for emission at 590 nm (band width 10 nm). […]
(§1) The assays were performed in duplicate or more replicates of independent single experiments each containing a six-fold replicate for every condition. For every individual plate, the measured fluorescence intensity values of the conditions with compound treatment were normalized • against the corresponding equally weighted arithmetic mean of the fluorescence intensity values of the six DMSO treated control wells in order to obtain the relative values to a baseline level of 1.0. […]

CAL-27 cells = assay: alamarBlue proliferation assay with CAL-27 cells; format: cell-based, human; conditions: relative to DMSO basis level 1.0
Source text: (§2) The antiproliferative activities of compounds falling under formula (Ia), (Ib) and (Ic), respectively, were investigated on cells or cell lines originating from a disorder of the haematopoietic system, including the myeloid cell compartment and the lymphoid cell compartment (T-cells and B-cells), the neuroendocrine system, the cervix, the breast, the ovaries, the lung, the gastrointestinal tract, and the mucosal epithelium, as well as from the skin epithelium and from the muscle. To this end, HL-60 cells, NB-4 cells, HH cells, RPMI-8402 cells, TANQUE cells, TT cells, HeLa cells, MDA-MB-231 cells, FU-OV-1 cells, LOU-NH91 cells, 23132/87 cells, CAL-27 cells, BHY cells, SCC-25 cells, A-431 cells, human primary epidermal keratinocytes (HPEK), and C2C12 cells were seeded into 96-well plates suitable for fluorescence assays (CORNING #3598) at following initial cell numbers: 1000 cells per well for HL-60; 1000 cells per well for NB-4; 5000 cells per well for HH; 5000 cells per well for RPMI-8402; 1500 cells per well for TANOUE; 9000 cells per well for TT; 2000 cells per well for HeLa; 3000 cells per well for MDA-MB-231; 3000 cells per well for FU-OV-1; 4000 cells per well for LOU-NH91; 2000 cells per well for 23132/87; 2000 cells per well for CAL-27; 1500 cells per well for BHY; 1500 cells per well for SCC-25; 700 cells per well for A-431; 1000 cells per well for HPEK; 500 cells per well for C2C12. […] The readout was taken with a multi-well plate-reader in the fluorescence mode with applying a filter for excitation at 560 nm (band width 10 nm) and for emission at 590 nm (band width 10 nm). […]
as §1

TANOUE cells = assay: alamarBlue proliferation assay with TANOUE cells; format: cell-based, human; conditions: relative to DMSO basis level 1.0
Source text: as §2, §1

TT cells = assay: alamarBlue proliferation assay with TT cells; format: cell-based, human; conditions: relative to DMSO basis level 1.0
Source text: as §2, §1

NB-4 cells = assay: alamarBlue proliferation assay with NB-4 cells; format: cell-based, human; conditions: relative to DMSO basis level 1.0
Source text: as §2, §1

HL-60 cells = assay: alamarBlue proliferation assay with HL-60 cells; format: cell-based, human; conditions: relative to DMSO basis level 1.0
Source text: as §2, §1

RPMI-8402 cells = assay: alamarBlue proliferation assay with RPMI-8402 cells; format: cell-based, human; conditions: relative to DMSO basis level 1.0
Source text: as §2, §1

BHY cells = assay: alamarBlue proliferation assay with BHY cells; format: cell-based, human; conditions: relative to DMSO basis level 1.0
Source text: as §2, §1

FU-OV-1 cells = assay: alamarBlue proliferation assay with FU-OV-1 cells; format: cell-based, human; conditions: relative to DMSO basis level 1.0
Source text: as §2, §1

LOU-NH91 cells = assay: alamarBlue proliferation assay with LOU-NH91 cells; format: cell-based, human; conditions: relative to DMSO basis level 1.0
Source text: as §2, §1

HeLa cells = assay: alamarBlue proliferation assay with HeLa cells; format: cell-based, human; conditions: relative to DMSO basis level 1.0
Source text: as §2, §1

23132/87 cells = assay: alamarBlue proliferation assay with 23132/87 cells; format: cell-based, human; conditions: relative to DMSO basis level 1.0
Source text: as §2, §1

C2C12 cells = assay: alamarBlue proliferation assay with C2C12 cells; format: cell-based, murine
Source text: as §2, §1

A-431 cells = assay: alamarBlue proliferation assay with A-431 cells; format: cell-based, human
Source text: as §2, §1

HPEKp cells = assay: alamarBlue proliferation assay with HPEKp cells; format: cell-based, human
Source text: as §2, §1

SCC-25 cells = assay: alamarBlue proliferation assay with SCC-25 cells; format: cell-based, human
Source text: as §2, §1

HH cells = assay: alamarBlue proliferation assay with HH cells; format: cell-based, human; conditions: relative to DMSO basis level 1.0
Source text: as §2, §1

CN(Cc1cnc2nc(N)nc(N)c2n1)c1ccc(C(=O)N[C@@H](CCC(=O)O)C(=O)O)cc1 [MTREX, Methotrexate]
Activity Range: weighted arithmetic mean (AVEw) of normalized fluorescence intensity (MDA-MB-231 cells): 0.6 ± 0.0 | Activity Range: weighted arithmetic mean (AVEw) of normalized fluorescence intensity (CAL-27 cells; 20 μM): 0.1 ± 0.0 | Activity Range: weighted arithmetic mean (AVEw) of normalized fluorescence intensity (TANOUE cells; 20 μM): 0.1 ± 0.0 | Activity Range: weighted arithmetic mean (AVEw) of normalized fluorescence intensity (TT cells; 20 μM): 1.0 ± 0.0 | Activity Range: weighted arithmetic mean (AVEw) of normalized fluorescence intensity (NB-4 cells; 20 μM): 0.1 ± 0.0 | Activity Range: weighted arithmetic mean (AVEw) of normalized fluorescence intensity (HL-60 cells; 20 μM): 0.1 ± 0.1 | Activity Range: weighted arithmetic mean (AVEw) of normalized fluorescence intensity (RPMI-8402 cells; 20 μM): 0.1 ± 0.0 | Activity Range: weighted arithmetic mean (AVEw) of normalized fluorescence intensity (BHY cells; 20 μM): 0.3 ± 0.0 | Activity Range: weighted arithmetic mean (AVEw) of normalized fluorescence intensity (FU-OV-1 cells; 20 μM): 1.0 ± 0.0 | Activity Range: weighted arithmetic mean (AVEw) of normalized fluorescence intensity (LOU-NH91 cells; 20 μM): 0.5 ± 0.1 | Activity Range: weighted arithmetic mean (AVEw) of normalized fluorescence intensity (HeLa cells; 20 μM): 0.4 ± 0.0 | Activity Range: weighted arithmetic mean (AVEw) of normalized fluorescence intensity (23132/87 cells; 20 μM): 0.3 ± 0.0 | Activity Range: weighted arithmetic mean (AVEw) of normalized fluorescence intensity, relative to DMSO basis level of 1.0 (C2C12 cells; 20 μM): 0.1 ± 0.0 | Activity Range: weighted arithmetic mean (AVEw) of normalized fluorescence intensity, relative to DMSO basis level of 1.0 (A-431 cells; 20 μM): 0.2 ± 0.1 | Activity Range: weighted arithmetic mean (AVEw) of normalized fluorescence intensity, relative to DMSO basis level of 1.0 (HPEKp cells; control at 20 μM): 0.9 ± 0.0 | Activity Range: weighted arithmetic mean (AVEw) of normalized fluorescence intensity, relative to DMSO basis level of 1.0 (SCC-25 cells; 20 μM): 0.5 ± 0.1 | Activity Range: weighted arithmetic mean (AVEw) of normalized fluorescence intensity (HH cells; 20 μM): 0.4 ± 0.1

Oc1ccc(C=Cc2cc(O)cc(O)c2)cc1 [RES, Resveratrol]
Activity Range: weighted arithmetic mean (AVEw) of normalized fluorescence intensity (MDA-MB-231 cells): 0.6 ± 0.0 | Activity Range: weighted arithmetic mean (AVEw) of normalized fluorescence intensity (CAL-27 cells; 20 μM): 0.8 ± 0.1 | Activity Range: weighted arithmetic mean (AVEw) of normalized fluorescence intensity (CAL-27 cells; control at 40 μM): 0.4 ± 0.3 | Activity Range: weighted arithmetic mean (AVEw) of normalized fluorescence intensity (TANOUE cells; 20 μM): 0.1 ± 0.0 | Activity Range: weighted arithmetic mean (AVEw) of normalized fluorescence intensity (TANOUE cells; control at 40 μM): 0.0 ± 0.0 | Activity Range: weighted arithmetic mean (AVEw) of normalized fluorescence intensity (TT cells; 20 μM): 0.9 ± 0.0 | Activity Range: weighted arithmetic mean (AVEw) of normalized fluorescence intensity (TT cells; control at 40 μM): 0.7 ± 0.0 | Activity Range: weighted arithmetic mean (AVEw) of normalized fluorescence intensity (NB-4 cells; 20 μM): 0.1 ± 0.0 | Activity Range: weighted arithmetic mean (AVEw) of normalized fluorescence intensity (NB-4 cells; control at 40 μM): 0.0 ± 0.0 | Activity Range: weighted arithmetic mean (AVEw) of normalized fluorescence intensity (HL-60 cells; 20 μM): 0.4 ± 0.1 | Activity Range: weighted arithmetic mean (AVEw) of normalized fluorescence intensity (HL-60 cells; control at 40 μM): 0.2 ± 0.1 | Activity Range: weighted arithmetic mean (AVEw) of normalized fluorescence intensity (RPMI-8402 cells; 20 μM): 0.6 ± 0.0 | Activity Range: weighted arithmetic mean (AVEw) of normalized fluorescence intensity (RPMI-8402 cells; control at 40 μM): 0.1 ± 0.0 | Activity Range: weighted arithmetic mean (AVEw) of normalized fluorescence intensity (BHY cells; 20 μM): 0.5 ± 0.1 | Activity Range: weighted arithmetic mean (AVEw) of normalized fluorescence intensity (BHY cells; control at 40 μM): 0.3 ± 0.0 | Activity Range: weighted arithmetic mean (AVEw) of normalized fluorescence intensity (FU-OV-1 cells; 20 μM): 0.7 ± 0.0 | Activity Range: weighted arithmetic mean (AVEw) of normalized fluorescence intensity (FU-OV-1 cells; control at 40 μM): 0.4 ± 0.0 | Activity Range: weighted arithmetic mean (AVEw) of normalized fluorescence intensity (LOU-NH91 cells; 20 μM): 0.9 ± 0.1 | Activity Range: weighted arithmetic mean (AVEw) of normalized fluorescence intensity (LOU-NH91 cells; control at 40 μM): 0.7 ± 0.0 | Activity Range: weighted arithmetic mean (AVEw) of normalized fluorescence intensity (HeLa cells; 20 μM): 0.9 ± 0.0 | Activity Range: weighted arithmetic mean (AVEw) of normalized fluorescence intensity (HeLa cells; control at 40 μM): 0.4 ± 0.1 | Activity Range: weighted arithmetic mean (AVEw) of normalized fluorescence intensity (23132/87 cells; 20 μM): 0.5 ± 0.1 | Activity Range: weighted arithmetic mean (AVEw) of normalized fluorescence intensity (23132/87 cells; control at 40 μM): 0.2 ± 0.0 | Activity Range: weighted arithmetic mean (AVEw) of normalized fluorescence intensity, relative to DMSO basis level of 1.0 (C2C12 cells; 20 μM): 0.8 ± 0.0 | Activity Range: weighted arithmetic mean (AVEw) of normalized fluorescence intensity, relative to DMSO basis level of 1.0 (C2C12 cells; control at 40 μM): 0.2 ± 0.1 | Activity Range: weighted arithmetic mean (AVEw) of normalized fluorescence intensity, relative to DMSO basis level of 1.0 (A-431 cells; 20 μM): 0.6 ± 0.1 | Activity Range: weighted arithmetic mean (AVEw) of normalized fluorescence intensity, relative to DMSO basis level of 1.0 (A-431 cells; control at 40 μM): 0.2 ± 0.0 | Activity Range: weighted arithmetic mean (AVEw) of normalized fluorescence intensity, relative to DMSO basis level of 1.0 (HPEKp cells; control at 20 μM): 0.2 ± 0.0 | Activity Range: weighted arithmetic mean (AVEw) of normalized fluorescence intensity, relative to DMSO basis level of 1.0 (HPEKp cells; control at 40 μM): 0.2 ± 0.0 | Activity Range: weighted arithmetic mean (AVEw) of normalized fluorescence intensity, relative to DMSO basis level of 1.0 (SCC-25 cells; 20 μM): 0.4 ± 0.1 | Activity Range: weighted arithmetic mean (AVEw) of normalized fluorescence intensity, relative to DMSO basis level of 1.0 (SCC-25 cells; control at 40 μM): 0.1 ± 0.0 | Activity Range: weighted arithmetic mean (AVEw) of normalized fluorescence intensity (HH cells; 20 μM): 0.6 ± 0.1 | Activity Range: weighted arithmetic mean (AVEw) of normalized fluorescence intensity (HH cells; control at 40 μM): 0.4 ± 0.1
